Experimental data: US20150105252A1, “SUBSTITUTED PYRAZOLES AS HERBICIDES” (E I DU PONT DE NEMOURS AND COMPANY, priority 2013, published 2015)

Tests used:
barnyardgrass [1] = experiment: Test C postemergence; format: in vivo, Echinochloa crus-galli
How it was run: (§1)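 Postemergence values come from plants sprayed at the 1- to 4-leaf stage (2–18 cm) in peat moss–vermiculite medium; preemergence values from seeds treated in a loam–sand blend. Both evaluated visually against controls after 13–15 greenhouse days, scale 0–100.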

oilseed rape = experiment: Test C postemergence; format: in vivo, Brassica napus
How it was run: as §1

velvetleaf [2] = experiment: Test A postemergence; format: in vivo, Abutilon theophrasti
How it was run: (§2)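 Both timings tested concurrently in loam/sand soil: preemergence by directed soil spray, postemergence on plants of 2–10 cm at the one- to two-leaf stage. Greenhouse holding period was approximately 10 days before visual injury assessment (0–100, 0 = no effect).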

morningglory [3] = experiment: Test A preemergence; format: in vivo, Ipomoea spp.; conditions: preemergence
How it was run: as §2

oat, wild = experiment: Test C postemergence; format: in vivo, Avena fatua
How it was run: as §1

velvetleaf [4] = experiment: Test C postemergence; format: in vivo, Abutilon theophrasti
How it was run: as §1

galium = experiment: Test C preemergence; format: in vivo, Galium aparine; conditions: for Galium plant response rating: preemergence
How it was run: as §1

chickweed = experiment: Test C postemergence; format: in vivo, Stellaria media
How it was run: as §1

corn [5] = experiment: Test A preemergence; format: in vivo, Zea mays; conditions: preemergence
How it was run: as §2

barnyardgrass [6] = experiment: Test C preemergence; format: in vivo, Echinochloa crus-galli; conditions: for Barnyardgrass plant response rating: preemergence
How it was run: as §1

barnyardgrass [7] = experiment: Test A postemergence; format: in vivo, Echinochloa crus-galli
How it was run: as §2

lambsquarters = experiment: Test C postemergence; format: in vivo, Chenopodium album
How it was run: as §1

morningglory [8] = experiment: Test C postemergence; format: in vivo, Ipomoea coccinea
How it was run: as §1

foxtail, giant = experiment: Test A preemergence; format: in vivo, Setaria faberii; conditions: preemergence
How it was run: as §2

corn [9] = experiment: Test A postemergence; format: in vivo, Zea mays
How it was run: as §2

pigweed = experiment: Test C postemergence; format: in vivo, Amaranthus retroflexus
How it was run: as §1

[10] = Postemergence, 31 g ai/ha, visually evaluated after 13 to 15 days
[11] = postemergence, 62 g ai/ha, scale 0 to 100
[12] = postemergence, 250 g ai/ha, scale 0 to 100 (0 no effect, 100 complete control)
[13] = postemergence, 125 g ai/ha, scale 0 to 100, 0 no effect, 100 complete control
[14] = Postemergence, 500 g ai/ha, visual rating after approx. 10 days, 0 to 100 scale (0 no effect, 100 complete control)
[15] = postemergence, 125 g ai/ha, about 10 days, visual rating on 0 to 100 scale (0 no effect, 100 complete control)
[16] = 125 g ai/ha, visual injury, 0 to 100 scale, approx. 10 days
[17] = 500 g ai/ha, visual injury after approx. 10 days, 0 to 100 scale (0 no effect, 100 complete control)
[18] = 62 g ai/ha, scale 0 to 100 (0 no effect, 100 complete control), 13 to 15 days
[19] = 125 g ai/ha, scale 0 to 100, 0 is no effect, 100 is complete control

## CCc1cc(C(=O)NCC(F)(F)F)nn1Cc1nc(C(F)(F)F)nn1C [Compound 107]
Barnyardgrass [1]; [10]
  Plant response rating (scale of 0 to 100 where 0 is no effect and 100 is complete control), Barnyardgrass: 0
Barnyardgrass [1]; [11]
  Barnyardgrass plant response rating: 0
Barnyardgrass [1]; [12]
  Plant response rating, Barnyardgrass: 30
Barnyardgrass [1]; [13]
  Plant response rating, Barnyardgrass: 5
Oilseed rape; [10]
  Plant response rating (scale of 0 to 100 where 0 is no effect and 100 is complete control), Oilseed Rape: 5
Oilseed rape; [11]
  Oilseed Rape plant response rating: 60
Oilseed rape; [12]
  Plant response rating, Oilseed Rape: 80
Oilseed rape; [13]
  Plant response rating, Oilseed Rape: 60
Velvetleaf [2]; [14]
  Velvetleaf plant response rating: 100
Velvetleaf [2]; [15]
  Velvetleaf plant response rating: 80
Morningglory [3]; [16]
  Morningglory plant response rating: 90
Morningglory [3]; [17]
  Morningglory plant response rating: 100
oat, wild; [10]
  Plant response rating (scale of 0 to 100 where 0 is no effect and 100 is complete control), Oat, Wild: 5
oat, wild; [11]
  Oat, Wild plant response rating: 5
oat, wild; [12]
  Plant response rating, Oat, Wild: 40
oat, wild; [13]
  Plant response rating, Oat, Wild: 5
Velvetleaf [4]; [10]
  Plant response rating (scale of 0 to 100 where 0 is no effect and 100 is complete control), Velvetleaf: 30
Velvetleaf [4]; [11]
  Velvetleaf plant response rating: 30
Velvetleaf [4]; [12]
  Plant response rating, Velvetleaf: 50
Velvetleaf [4]; [13]
  Plant response rating, Velvetleaf: 35
galium; Preemergence, 250 g ai/ha
  Plant response rating (scale of 0 to 100), Galium: 100
galium; 31 g ai/ha, visual rating, scale 0 to 100 (0 no effect, 100 complete control), 13 to 15 days
  Galium plant response rating: 75
galium; [18]
  Galium plant response rating: 90
galium; [19]
  Galium plant response rating: 95
chickweed; [10]
  Plant response rating (scale of 0 to 100 where 0 is no effect and 100 is complete control), Chickweed: 100
chickweed; [11]
  Chickweed plant response rating: 100
chickweed; [12]
  Plant response rating, Chickweed: 100
chickweed; [13]
  Plant response rating, Chickweed: 100
Corn [5]; [16]
  Corn plant response rating: 30
Corn [5]; [17]
  Corn plant response rating: 80
Barnyardgrass [6]; Preemergence, 250 g ai/ha
  Plant response rating (scale of 0 to 100), Barnyardgrass: 100
Barnyardgrass [6]; 31 g ai/ha, scale 0 to 100 (0 no effect, 100 complete control), 13 to 15 days
  Barnyardgrass plant response rating: 40
Barnyardgrass [6]; [18]
  Barnyardgrass plant response rating: 100
Barnyardgrass [6]; [19]
  Barnyardgrass plant response rating: 100
Barnyardgrass [7]; [14]
  Barnyardgrass plant response rating: 90
Barnyardgrass [7]; [15]
  Barnyardgrass plant response rating: 80
lambsquarters; [10]
  Plant response rating (scale of 0 to 100 where 0 is no effect and 100 is complete control), Lambsquarters: 40
lambsquarters; [11]
  Lambsquarters plant response rating: 40
lambsquarters; [12]
  Plant response rating, Lambsquarters: 90
lambsquarters; [13]
  Plant response rating, Lambsquarters: 70
Morningglory [8]; [10]
  Plant response rating (scale of 0 to 100 where 0 is no effect and 100 is complete control), Morningglory: 75
Morningglory [8]; [11]
  Morningglory plant response rating: 80
Morningglory [8]; [12]
  Plant response rating, Morningglory: 80
Morningglory [8]; [13]
  Plant response rating, Morningglory: 80
foxtail, giant; [16]
  Foxtail, Giant plant response rating: 100
foxtail, giant; [17]
  Foxtail, Giant plant response rating: 100
Corn [9]; [14]
  Corn plant response rating: 90
Corn [9]; [15]
  Corn plant response rating: 50
pigweed; [10]
  Plant response rating (scale of 0 to 100 where 0 is no effect and 100 is complete control), Pigweed: 50
pigweed; [11]
  Pigweed plant response rating: 85
pigweed; [12]
  Plant response rating, Pigweed: 85
pigweed; [13]
  Plant response rating, Pigweed: 85
